# Reference: PubChem BioAssay (NCI)
#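 48-hour exposure; five concentrations; linearly interpolated endpoints. TGI denotes the concentration required for complete inhibition of growth.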
# Columns and labels:
# Experiment in all cases: DTP human tumour cell line panel, 48 h
# OVCAR-3 ovarian = system: OVCAR-3 ovarian
# OVCAR-5 ovarian = system: OVCAR-5 ovarian
# EKVX NSCLC = system: EKVX NSCLC
# HT29 colon = system: HT29 colon
# MDA-N = system: MDA-N
# MDA-MB-231 breast = system: MDA-MB-231 breast
# A549 NSCLC = system: A549 NSCLC
# HCC-2998 colon = system: HCC-2998 colon
# OVCAR-8 ovarian = system: OVCAR-8 ovarian
# SNB-75 CNS = system: SNB-75 CNS
smiles,measurement,setting,value
N=C(c1cccs1)C1(N2CCCCC2)CCCCC1,TGI,OVCAR-3 ovarian,30.3 µM
same,TGI,OVCAR-5 ovarian,34.6 µM
same,TGI,EKVX NSCLC,41.3 µM
same,TGI,HT29 colon,34.5 µM
same,TGI,MDA-N,> 100 µM
same,TGI,MDA-MB-231 breast,31 µM
same,TGI,A549 NSCLC,60.2 µM
same,TGI,HCC-2998 colon,27.1 µM
CC(=O)O[C@H]1CC[C@H]2[C@@H]3CCC(C(C)=O)[C@H](C(=O)O)[C@H]3CC[C@]12C (some centres not stated),TGI,OVCAR-3 ovarian,> 100 µM
same,TGI,OVCAR-5 ovarian,> 100 µM
same,TGI,EKVX NSCLC,> 100 µM
same,TGI,HT29 colon,> 100 µM
same,TGI,MDA-MB-231 breast,> 100 µM
same,TGI,A549 NSCLC,> 100 µM
same,TGI,HCC-2998 colon,> 100 µM
same,TGI,OVCAR-8 ovarian,> 100 µM
O=C1C[C@H](c2ccc(O)c(O)c2)Oc2cc(O)cc(O)c21,TGI,OVCAR-3 ovarian,> 100 µM
same,TGI,OVCAR-5 ovarian,> 100 µM
same,TGI,EKVX NSCLC,> 100 µM
same,TGI,HT29 colon,> 100 µM
same,TGI,A549 NSCLC,> 100 µM
same,TGI,HCC-2998 colon,> 100 µM
same,TGI,OVCAR-8 ovarian,> 100 µM
same,TGI,SNB-75 CNS,> 100 µM
CC(=O)OCC1OC(N2C(S)=C(C#N)C(c3ccco3)C(C(C)=O)=C2c2ccccc2)C(OC(C)=O)C(OC(C)=O)C1OC(C)=O (configuration not stated),TGI,OVCAR-3 ovarian,> 100 µM
same,TGI,OVCAR-5 ovarian,> 100 µM
same,TGI,HT29 colon,> 100 µM
same,TGI,MDA-N,> 100 µM
same,TGI,MDA-MB-231 breast,> 100 µM
same,TGI,A549 NSCLC,> 100 µM
same,TGI,HCC-2998 colon,> 100 µM
same,TGI,OVCAR-8 ovarian,> 100 µM
same,TGI,SNB-75 CNS,> 100 µM
COc1ccccc1N=C1SCCN1C(=S)Nc1ccc(S(=O)(=O)/N=C/N(C)C)cc1,TGI,OVCAR-3 ovarian,> 100 µM
same,TGI,OVCAR-5 ovarian,> 100 µM
same,TGI,EKVX NSCLC,63.2 µM
same,TGI,MDA-N,> 100 µM
same,TGI,MDA-MB-231 breast,> 100 µM
same,TGI,A549 NSCLC,> 100 µM
same,TGI,HCC-2998 colon,> 100 µM
same,TGI,OVCAR-8 ovarian,> 100 µM
same,TGI,SNB-75 CNS,98.4 µM
O=C1N[C@@H](COc2ccc(C=Nc3ccc(CCc4ccc(N=Cc5ccc(OC[C@@H]6COC(=O)N6)cc5)cc4)cc3)cc2)CO1,TGI,OVCAR-3 ovarian,> 100 µM
same,TGI,OVCAR-5 ovarian,> 100 µM
same,TGI,EKVX NSCLC,> 100 µM
same,TGI,HT29 colon,> 100 µM
same,TGI,MDA-N,> 100 µM
same,TGI,MDA-MB-231 breast,> 100 µM
same,TGI,A549 NSCLC,> 100 µM
same,TGI,OVCAR-8 ovarian,> 100 µM
CC(=O)n1ccc2c(Cl)ncnc21,TGI,OVCAR-3 ovarian,> 100 µM
same,TGI,EKVX NSCLC,> 100 µM
same,TGI,HT29 colon,> 100 µM
same,TGI,A549 NSCLC,> 100 µM
same,TGI,HCC-2998 colon,> 100 µM
same,TGI,OVCAR-8 ovarian,> 100 µM
same,TGI,SNB-75 CNS,> 100 µM
COC(=O)C1C2CC3C(OC(=O)C31)C2OC(=O)[C@](OC)(c1ccccc1)C(F)(F)F (some centres not stated),TGI,OVCAR-3 ovarian,> 100 µM
same,TGI,OVCAR-5 ovarian,> 100 µM
same,TGI,EKVX NSCLC,> 100 µM
same,TGI,HT29 colon,> 100 µM
same,TGI,A549 NSCLC,> 100 µM
same,TGI,HCC-2998 colon,> 100 µM
same,TGI,OVCAR-8 ovarian,> 100 µM
same,TGI,SNB-75 CNS,> 100 µM
OC(c1ccccc1)(c1cccnc1)C(O)(c1ccccc1)c1cccnc1 (configuration not stated),TGI,OVCAR-5 ovarian,> 100 µM
same,TGI,EKVX NSCLC,> 100 µM
same,TGI,HT29 colon,> 100 µM
same,TGI,MDA-N,> 100 µM
same,TGI,MDA-MB-231 breast,> 100 µM
same,TGI,A549 NSCLC,> 100 µM
same,TGI,OVCAR-8 ovarian,> 100 µM
same,TGI,SNB-75 CNS,> 100 µM
O=C1NC2(C=Cc3c(ccc4ccccc34)O2)Oc2ccccc21 (configuration not stated),TGI,OVCAR-3 ovarian,59.8 µM
same,TGI,OVCAR-5 ovarian,> 100 µM
same,TGI,EKVX NSCLC,82.3 µM
same,TGI,HT29 colon,30.3 µM
same,TGI,A549 NSCLC,> 100 µM
same,TGI,OVCAR-8 ovarian,> 100 µM
same,TGI,SNB-75 CNS,61.4 µM
O=C1OC(=O)C2C1C(c1ccccc1[N+](=O)[O-])C=C(c1ccco1)N2c1ccncc1 (configuration not stated),TGI,OVCAR-3 ovarian,30.5 µM
same,TGI,OVCAR-5 ovarian,51.6 µM
same,TGI,EKVX NSCLC,39.7 µM
same,TGI,HT29 colon,6.13 µM
same,TGI,MDA-N,18.8 µM
same,TGI,MDA-MB-231 breast,32.9 µM
same,TGI,A549 NSCLC,31.6 µM
same,TGI,OVCAR-8 ovarian,31.8 µM
same,TGI,SNB-75 CNS,35.2 µM
CC(C)(C)OC(=O)N1N=NC2C3OC(CC3=O)C21 (configuration not stated),TGI,OVCAR-3 ovarian,> 100 µM
same,TGI,OVCAR-5 ovarian,> 100 µM
same,TGI,EKVX NSCLC,> 100 µM
same,TGI,HT29 colon,> 100 µM
same,TGI,A549 NSCLC,> 100 µM
same,TGI,HCC-2998 colon,> 100 µM
same,TGI,OVCAR-8 ovarian,> 100 µM
same,TGI,SNB-75 CNS,> 100 µM
